In assay [1] the target is human immunoproteasome (LMP7) (Homo sapiens (Human), UniProt P28062). Nature of the assay: Determination of LMP7 activity (fluorescence intensity assay, Suc-LLVY-AMC). Format: biochemical. Particulars: for Selectivity LMP7 vs Beta5: LMP7 versus Beta5; for IC50: purified human immunoproteasome 0.25 nM, Suc-LLVY-AMC 40 μM. As for the experimental part: Determination of LMP7 Activity:
Measurement of LMP7 inhibition is performed in 384 well format based on fluorescence intensity assay.
Purified human immunoproteasome (0.25 nM) and serial diluted compounds in DMSO (range of concentrations from 30 μM to […]) or controls are incubated for 20 minutes at 25° C. in assay buffer containing 50 mM Tris pH 7.4, 0.03% SDS, 1 mM EDTA and 1% DMSO. The reaction is initiated by the addition of the fluorogenic peptide substrate, Suc-LLVY-AMC (Bachem 1-1395), at a concentration of 40 μM. After 60 minutes of incubation at 37° C., fluorescence intensity is measured at λex=350 nm and λem=450 nm with a fluorescence reader (Perkin Elmer Envision reader or equivalent).

Assay [2] addresses human constitutive proteasome (Beta5) (Homo sapiens (Human), UniProt P28074). Nature of the assay: Determination of Beta5 activity (fluorescence intensity assay, Suc-LLVY-AMC). Format: biochemical. Particulars: purified human constitutive proteasome 1.25 nM, Suc-LLVY-AMC 40 μM. As to the method:
Determination of Beta5 Activity:
Measurement of Beta5 inhibition is performed in 384 well format based on fluorescence intensity assay.
Purified human constitutive proteasome (1.25 nM) and serial diluted compounds in DMSO (range of concentrations from 30 μM to […]) or controls are incubated for 20 minutes at 25° C. in assay buffer containing 50 mM Tris pH 7.4, 0.03% SDS, 1 mM EDTA and 1% DMSO. The reaction is initiated by the addition of the fluorogenic peptide substrate, Suc-LLVY-AMC (Bachem 1-1395), at a concentration of 40 μM. After 60 minutes of incubation at 37° C., fluorescence intensity is measured at λex=350 nm and λem=450 nm with a fluorescence reader (Perkin Elmer Envision reader or equivalent).

For orientation: IC50 means the point on the concentration scale where inhibition reaches its midpoint. A low value points to greater potency. On to `CCOc1ccc(CC(=O)N[C@@H](C[C@@H]2COc3ccccc32)B(O)O)nc1` [Compound No. 131, [(1R)-2-[(3S)-2,3-dihydrobenzofuran-3-yl]-1-[[2-(5-ethoxy-2-pyridyl)acetyl]amino]ethyl]boronic acid], for which, in assay [1], the “Selectivity LMP7 vs Beta5” value is “+++++ (Selectivity ≥ 100)” and the IC50 is less than 50 nM. The IC50 in assay [2] fell in the range of 500 to 5000 nM.

Consider `Cc1cccc2c(C[C@H](NC(=O)Cc3ccccc3)B(O)O)coc12` [Compound No. 75, [(1R)-2-(7-methylbenzofuran-3-yl)-1-[(2-phenylacetyl)amino]-ethyl]boronic acid], for which, in assay [1], the “Selectivity LMP7 vs Beta5” value is “+++++ (Selectivity ≥ 100)” and the IC50 is less than 50 nM. In assay [2], this compound yielded an IC50 of 500 to 5000 nM.

For `COc1ccc(CC(=O)N[C@@H](Cc2coc3c(C)cccc23)B(O)O)cc1` [Compound No. 82, [(1R)-1-[[2-(4-methoxyphenyl)acetyl]amino]-2-(7-methylbenzofuran-3-yl)ethyl]boronic acid], in assay [1], the “Selectivity LMP7 vs Beta5” value was “+++++ (Selectivity ≥ 100)” and the concentration for half-maximal inhibition (IC50) was less than 50 nM. The compound further registered an IC50 in assay [2] of 500 to 5000 nM.

Take `COc1ccc(CC(=O)N[C@@H](Cc2coc3ccccc23)B(O)O)c(OC)c1OC` [Compound No. 60, [(1R)-2-(benzofuran-3-yl)-1-[[2-(2,3,4-trimethoxyphenyl)acetyl]amino]-ethyl]boronic acid]: in assay [1], the “Selectivity LMP7 vs Beta5” value is reported as “++++ (70 ≤ Selectivity < 100)” and the IC50 was less than 50 nM. The same compound gave an IC50 in assay [2] of 50 to 500 nM.

As for `CN(C)C(=O)c1ccccc1CC(=O)N[C@@H](Cc1coc2ccccc12)B(O)O` [Compound No. 66, [(1R)-2-(benzofuran-3-yl)-1-[[2-[2-(dimethylcarbamoyl)phenyl]acetyl]-amino]ethyl]boronic acid], in assay [1], the “Selectivity LMP7 vs Beta5” value is “+++++ (Selectivity ≥ 100)” and the IC50 is less than 50 nM. Also, in assay [2], the half-inhibitory concentration (IC50) was in the range of 500 to 5000 nM.

As to `CCOC(=O)Nc1cccc(CC(=O)N[C@@H](Cc2coc3ccccc23)B(O)O)c1` [Compound No. 72, [(1R)-2-(benzofuran-3-yl)-1-[[2-[3-(ethoxycarbonylamino)phenyl]-acetyl]amino]ethyl]boronic acid], in assay [1], the “Selectivity LMP7 vs Beta5” value is given as “+++ (50 ≤ Selectivity < 70)” and the IC50 was less than 50 nM. Moreover, the IC50 in assay [2] fell in the range of 500 to 5000 nM.

Turning to `COc1ccc(CCC(=O)N[C@H](CC2COc3c(C)cccc32)B(O)O)nc1` (stereo partly drawn) [Compound No. 87, [(1S)-1-[3-(5-methoxy-2-pyridyl)propanoylamino]-2-(7-methyl-2,3-dihydrobenzofuran-3-yl)ethyl]boronic acid], in assay [1], the “Selectivity LMP7 vs Beta5” value was “+ (Selectivity < 10)” and the IC50 fell in the range of 500 to 5000 nM. This compound showed an IC50 in assay [2] greater than 5000 nM.

Consider `O=C(Cc1cc(F)c(F)c(F)c1)N[C@@H](Cc1coc2ccccc12)B(O)O` [Compound No. 22, [(1R)-2-(benzofuran-3-yl)-1-[[2-(3,4,5-trifluorophenyl)acetyl]amino]-ethyl]boronic acid], for which, in assay [1], the “Selectivity LMP7 vs Beta5” value is “++++ (70 ≤ Selectivity < 100)” and the IC50 was less than 50 nM. This compound gave an IC50 in assay [2] of 50 to 500 nM.

For the compound `COc1ccc(CC(=O)N[C@H](C[C@@H]2COc3ccccc32)B(O)O)cc1` [Compound No. 117, [(1S)-2-[(3S)-2,3-dihydrobenzofuran-3-yl]-1-[[2-(4-methoxyphenyl)-acetyl]amino]ethyl]boronic acid], in assay [1], the “Selectivity LMP7 vs Beta5” value is on record as “+++++ (Selectivity ≥ 100)” and the IC50 was 50 to 500 nM. The IC50 in assay [2] is greater than 5000 nM.

For the compound `O=C(Cc1cnccn1)N[C@@H](Cc1coc2ccccc12)B(O)O` [Compound No. 18, [(1R)-2-(benzofuran-3-yl)-1-[(2-pyrazin-2-ylacetyl)amino]ethyl]boronic acid], in assay [1], the “Selectivity LMP7 vs Beta5” value is “++ (10 ≤ Selectivity < 50)”. Besides, the results for the IC50 in assay [1] and in assay [2] were less than 50 nM and 50 to 500 nM, respectively.

`O=C(Cc1c(Cl)cccc1Cl)N[C@@H](Cc1coc2ccccc12)B(O)O` [Compound No. 25, [(1R)-2-(benzofuran-3-yl)-1-[[2-(2,6-dichlorophenyl)acetyl]amino]-ethyl]boronic acid]: the “Selectivity LMP7 vs Beta5” value in assay [1] is on record as “++++ (70 ≤ Selectivity < 100)”. Besides, the IC50 in assay [1] was less than 50 nM; in assay [2], 500 to 5000 nM.

Take `Cc1cccc2c(C[C@@H](NC(=O)[C@@H](CO)c3ccccc3)B(O)O)coc12` [Compound No. 84, [(1S)-1-[[(2R)-3-hydroxy-2-phenyl-propanoyl]amino]-2-(7-methylbenzofuran-3-yl)ethyl]boronic acid]: in assay [1], the “Selectivity LMP7 vs Beta5” value is “++ (10 ≤ Selectivity < 50)” and the IC50 lay in the range of 500 to 5000 nM. In assay [2], this compound yielded an IC50 greater than 5000 nM.

As to `O=C(Cc1ccccc1)N[C@@H](C[C@H]1COc2c(Cl)cccc21)B(O)O` [Compound No. 133, [(1R)-2-[(3R)-7-chloro-2,3-dihydrobenzofuran-3-yl]-1-[(2-phenylacetyl)amino]ethyl]boronic acid], in assay [1], the “Selectivity LMP7 vs Beta5” value is reported as “++ (10 ≤ Selectivity < 50)” and the IC50 was in the range of 500 to 5000 nM. Further, in assay [2], the IC50 is greater than 5000 nM.

As for `Cc1cccc2c(C[C@H](NC(=O)[C@H](CO)c3ccccc3)B(O)O)coc12` [Compound No. 79, [(1R)-1-[[(2S)-3-hydroxy-2-phenyl-propanoyl]amino]-2-(7-methylbenzofuran-3-yl)ethyl]boronic acid], the “Selectivity LMP7 vs Beta5” value in assay [1] is reported as “+++++ (Selectivity ≥ 100)”. Further, the half-maximal inhibitory concentration (IC50) was less than 50 nM in assay [1] and 500 to 5000 nM in assay [2].

For the compound `Cc1cccc2c1OC[C@@H]2C[C@H](NC(=O)Cc1ccccc1)B(O)O` [Compound No. 127, [(1R)-2-[(3R)-7-methyl-2,3-dihydrobenzofuran-3-yl]-1-[(2-phenylacetyl)amino]ethyl]boronic acid], in assay [1], the “Selectivity LMP7 vs Beta5” value is listed as “++ (10 ≤ Selectivity < 50)” and the IC50 was 500 to 5000 nM. In assay [2], this compound returned an IC50 greater than 5000 nM.

Regarding `Cc1cccc2c(C[C@@H](NC(=O)[C@H](CO)c3ccccc3)B(O)O)coc12` [Compound No. 80, [(1S)-1-[[(2S)-3-hydroxy-2-phenyl-propanoyl]amino]-2-(7-methylbenzofuran-3-yl)ethyl]boronic acid], in assay [1], the “Selectivity LMP7 vs Beta5” value is “+++++ (Selectivity ≥ 100)” and the IC50 lay within 50 to 500 nM. In assay [2], the IC50 was greater than 5000 nM.

Take `N#Cc1cccc(CC(=O)N[C@@H](Cc2coc3ccccc23)B(O)O)c1` [Compound No. 123, [(1R)-2-(benzofuran-3-yl)-1-[[2-(3-cyanophenyl)acetyl]amino]ethyl]-boronic acid]: in assay [1], the “Selectivity LMP7 vs Beta5” value is recorded as “+++++ (Selectivity ≥ 100)” and the IC50 is less than 50 nM. The IC50 in assay [2] is 500 to 5000 nM.

Turning to `O=C(N[C@H](Cc1coc2ccccc12)B(O)O)[C@H](CO)c1ccccc1` [Compound No. 56, [(1S)-2-(benzofuran-3-yl)-1-[[(2S)-3-hydroxy-2-phenyl-propanoyl]-amino]ethyl]boronic acid], in assay [1], the “Selectivity LMP7 vs Beta5” value is given as “+++++ (Selectivity ≥ 100)” and the IC50 was in the range of 50 to 500 nM. The compound also returned an IC50 in assay [2] greater than 5000 nM.

For `COc1ccccc1CC(=O)N[C@@H](Cc1coc2ccccc12)B(O)O` [Compound No. 27, [(1R)-2-(benzofuran-3-yl)-1-[[2-(2-methoxyphenyl)acetyl]amino]ethyl]-boronic acid], in assay [1], the “Selectivity LMP7 vs Beta5” value was “++++ (70 ≤ Selectivity < 100)” and the IC50 is less than 50 nM. The same compound displayed an IC50 in assay [2] of 50 to 500 nM.

For the compound `CO[C@@H](C(=O)N[C@@H](Cc1coc2ccccc12)B(O)O)c1ccccc1` [Compound No. 34, [(1R)-2-(benzofuran-3-yl)-1-[[(2R)-2-methoxy-2-phenyl-acetyl]amino]-ethyl]boronic acid], the “Selectivity LMP7 vs Beta5” value in assay [1] is listed as “+++++ (Selectivity ≥ 100)”. The IC50 is less than 50 nM in assay [1] and 500 to 5000 nM in assay [2].

As to `N#Cc1ccccc1CC(=O)N[C@@H](C[C@@H]1COc2ccccc21)B(O)O` [Compound No. 105, [(1R)-1-[[2-(2-cyanophenyl)acetyl]amino]-2-[(3S)-2,3-dihydrobenzofuran-3-yl]ethyl]boronic acid], in assay [1], the “Selectivity LMP7 vs Beta5” value is recorded as “+++++ (Selectivity ≥ 100)” and the IC50 is less than 50 nM. In assay [2], this compound yielded an IC50 of 500 to 5000 nM.

For `COc1ccc(CC(=O)N[C@@H](C[C@H]2COc3ccccc32)B(O)O)cc1` [Compound No. 122, [(1R)-2-[(3R)-2,3-dihydrobenzofuran-3-yl]-1-[[2-(4-methoxyphenyl)-acetyl]amino]ethyl]boronic acid], the IC50 in assay [1] fell in the range of 50 to 500 nM.

On to `Cc1ccc(OCCC(=O)N[C@@H](Cc2coc3ccccc23)B(O)O)cc1` [Compound No. 7, [(1R)-2-(benzofuran-3-yl)-1-[3-(4-methylphenoxy)propanoylamino]-ethyl]boronic acid], for which the “Selectivity LMP7 vs Beta5” value in assay [1] is given as “+++ (50 ≤ Selectivity < 70)”.

With `CCO[C@@H](C(=O)N[C@@H](Cc1coc2ccccc12)B(O)O)c1ccccc1` [Compound No. 70, [(1R)-2-(benzofuran-3-yl)-1-[[(2R)-2-ethoxy-2-phenyl-acetyl]amino]-ethyl]boronic acid], in assay [1], the “Selectivity LMP7 vs Beta5” value is given as “+++++ (Selectivity ≥ 100)”.

(Values after US10294246B2, “Substituted boronic acids and boronate esters as immunoproteasome inhibitors” (MERCK PATENT GMBH, priority 2014, dated 2019).)
